Consider nine compounds from patent publication US9983218B2, “Indole and indoline derivatives and methods of use thereof” (AbbVie Inc., priority 2008, dated 2018).

SMILES strings stand for the structures. Entries after “also recorded” stand apart in the source; their conditions may differ.

The test system of one series is Male Sprague Dawley rats. Nature of the series: Analgesic effect against neuropathic pain (L5/L6 spinal nerve ligation, von Frey filaments). It is filed as in vivo. As to conditions: rat. As to the method:
Animals were prepared for testing, by use of a surgical procedure that induces neuropathic pain in one paw. Male Sprague Dawley rats were purchased from Charles River (Portage, Mich.). Prior to surgery, animals were housed in groups and maintained in a temperature-regulated environment. Following nerve ligation surgery, animals were housed in groups, and had access to food and water ad libitum.
The L5 and L6 spinal nerves of anesthetized rats were tightly ligated in a manner described previously (see Kim and Chung, Pain (1992) vol. 50 pp. 355-363). An incision was made on the dorsal portion of the hip and the muscle was blunt-dissected to reveal the spinal processes. The L6 transverse process was removed, and the left side L5 and L6 spinal nerves were tightly ligated with 5.0 braided silk suture. The wound was cleaned, the membrane sewn with 4.0 dissolvable Vicryl suture and the skin closed with wound clips. The paw affected by the surgical procedure (the left paw) develops an allodynic response, a hypersensitivity to mechanical and other stimuli; neuropathic pain is assessed as an increased sensitivity in the surgically affected (left) allodynic paw compared to the control paw on the right side, and measured by comparing the response of the (left side) allodynic paw to the response of the unaffected right side control paw.
For the assessment of neuropathic pain, mechanical allodynia in the affected paw of animals that had undergone spinal nerve ligation was evaluated using testing with von Frey filaments. As described previously by S. R. Chaplan, et al (“Quantitative assessment of tactile allodynia in the rat paw” J. Neurosci. Meth. (1994) vol. 53 pp. 55-63), two weeks following surgery rats were acclimated to a testing box constructed of plexiglass with a wire mesh floor which allowed access to the plantar surface of the animal's hindpaws. […] The efficacy of the compound in reducing neuropathic pain at different doses was determined by comparing response in the surgery-affected paw versus the response in the control paw. […]

For series [1], the system named is primary postnatal (P0) cortical cells. Nature of the series: Neurite outgrowth assay (Aβ1-42-induced reduction of neurite outgrowth, high content microscopy). It is filed as cell-based, rat. The conditions noted are these: for Emax: Rattus norvegicus, maximum response relative to 300 nM dimebolin, at the concentration given, read-out: Maximum Effect (of % 300 nM Dimebolin). The method, then: In addition to PC12 cells, other cellular model systems may also be used. Rat cortical cells were cultured and prepared for high content microscopy analysis as previously described (Hu, M.; Schurdak, M. E.; et al. High content screen microscopy analysis of Aβ1-42-induced neurite outgrowth reduction in rat primary cortical neurons: Neuroprotective effects of α7 neuronal nicotinic acetylcholine receptor ligands. Brain Res. 2007, 1151, 227-235.). Briefly, cortical cell cultures were plated at density of 5×10^5 cells/mL onto poly-D-lysine coated 96-well plates and maintained in a cell incubator at 37° C. with 5% CO2. Experiments were performed using 6-7 day-old cortical cell cultures by treating with test compounds. In some experiments, the effect of test compounds on reversing Aβ toxicity were also measured (Hu, M.; Schurdak, M. E.; et al. High content screen microscopy analysis of Aβ1-42-induced neurite outgrowth reduction in rat primary cortical neurons: Neuroprotective effects of α7 neuronal nicotinic acetylcholine receptor ligands. Brain Res. 2007, 1151, 227-235.). For assessment of neuroprotective effects, cells were first pretreated with test compounds for about 5 hours. Medium was then replaced with the medium containing freshly prepared about 5 μM Aβ1-42 peptide in the absence or presence of the test compounds for 3 days. The untreated group contained the same percentage of vehicle (DMSO) as in the treatment groups. Cells were fixed with approximately 4% paraformaldehyde containing 0.5% Hoechst 33342 for about 15 minutes, followed by three washes using PBS (pH 7.4) and blocked with 10% donkey serum in PBS for 1 hour at room temperature. The cells were then incubated overnight at about 4° C. with mouse anti-tubulin monoclonal antibody (1:100) for staining neurons and rabbit anti-GFAP (1:1000) for staining glia. In the next day, cells were incubated with FITC-labeled anti-mouse and TRITC-labeled anti-rabbit antibodies (1:1000) for about 1 hour at room temperature. After fixing and staining the cells, nuclei (360/400 nm excitation and 465/300 nm emission filters), neuron (475/350 nm excitation and 535/400 nm emission filters) and glial cell (535 nm excitation and 610 nm emission filters) images were collected using the ImageExpress Micro automatic fluorescent microscopy system (Molecular Devices, Sunnyvale, Calif.) employing a Nikon 10× Plan Fluor objective and Cool Snap HQ CCD camera. The Neurite Outgrowth module in the MetaMorph Imaging software was used to automatically count total cell number, number of neuron cells, and the extent of neurite outgrowth.
In the graph of FIG. 2, 100% response was the response observed for untreated cells. Exposure to Aβ1-42 produced a decrease in neurite outgrowth. Treatment of cells with compounds prior to and concomitantly with Aβ1-42 gave a neuroprotective effect with neurite outgrowth maintained or enhanced relative to untreated cells.

The subject of series [2] is Patients with mild-to-moderate Alzheimer's disease. The conditions noted are these: cited from earlier work.
Series [3] has as its system primary rat cortical neurons. As to conditions: comparable to that evoked by BDNF; cited from earlier work.
Series [4] relates to SK-N-SH human neuroblastoma cells. The series can be described thus: Serum deprivation/JC-1 mitochondrial membrane potential (MMP) assay. As to conditions: for Emax / EC50: Homo sapiens; for Emax: SK-N-SH, percent maximal intensity in JC-1 ratio normalized to 10 μM dimebolin, read-out: JC-1 max %; for EC50: serum deprivation ~18 hours, JC-1 ratio normalized to peak value for 10 μM dimebolin, single curve fit to mean data of n=2-3, read-out: EC50. It is filed as cell-based. In short, it runs like this:
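Cells were serum-deprived ~18 h in MEM with or without compound (DMSO ≤1%), then stained with JC-1 for 35 min at 37° C. The red/green fluorescence ratio (560/595 vs 485/535 nm) was normalized to the peak response of 10 μM dimebolin. EC50 came from one curve fit to mean data (n=2-3, duplicates).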

The subject of another series is mice. The series can be described thus: Inhibitory avoidance in mouse. The conditions noted are these: 24-hour recall, significant at 0.11 mg/kg and 1.1 mg/kg, FIG. 4. The class given is in vivo. As to the method:
Inhibitory Avoidance in Mouse: The inhibitory avoidance task involves the uses of a two-compartment step through apparatus (Ugo Basile, Collegeville, Pa.) that measures the animal's ability to remember a brief noxious stimulus (foot shock), and is considered a measure of trial learning, and memory consolidation. Briefly, mice were placed in a lighted compartment of the apparatus where the latency to enter into the preferred dark compartment is recorded. […] Retention testing was conducted 24 hours later with the animal again placed in the lighted compartment where its latency to reenter the dark side of the apparatus was measured (no shock). Increasing retention latency was regarded as an index of memory consolidation (Bitner, R. S.; Bunnelle, W. H.; et al. Broad-spectrum efficacy across cognitive domains by α7 nicotinic acetylcholine receptor agonism correlates with activation of ERK1/2 and CREB phosphorylation pathways. J. Neurosci. 2007, 27(39), 10578-10587.).

The EC50 is the midpoint of the concentration-response curve.

For the compound `Cc1ccc2c(c1)c1c(n2CCc2ccc(C)nc2)C2CCN(CC2)C1` [Example 2, 9-methyl-6-[2-(6-methylpyridin-3-yl)ethyl]-3,4,5,6-tetrahydro-1H-2,5-ethanoazepino[4,3-b]indole], the “reduction in mechanical allodynia” value in the series on Male Sprague Dawley rats (10 mg/kg intraperitoneal injection, 30 minutes before testing, **p<0.01, ***p<0.001 vs. vehicle, FIG. 6) turned out to be 58%. In addition, in the series with Male Sprague Dawley rats (i.p. 1, 3, and 10 mg/kg), the adverse effects result was “No complicating adverse effects were observed”. The “withdrawal threshold for allodynic limb (pressure applied to elicit a pain response)” value with Male Sprague Dawley rats (intraperitoneally 30 minutes before testing, maximum effect 15 g) was “concentration-dependent improvement”. Besides, in series [1], the Emax turned out to be 117%.
`Cc1ccc2c(c1)c1c(n2CCc2ccc(C)nc2)CCN(C)C1` [dimebolin, 2,3,4,5-tetrahydro-2,8-dimethyl-5-[2-(6-methyl-3-pyridinyl)ethyl]-1H-pyrido[4,3-b]indole]: in series [2] (20 mg three times a day (60 mg/day)), the “clinical course of disease (improvement over baseline for ADAS-Cog)” value is “significant improvement”. Besides, the “most frequent adverse event” value in series [2] (clinical studies of dimebolin) was “dry mouth”. The neurite outgrowth result in series [3] is listed as “increase neurite outgrowth”.
With `Cc1ccc2c(c1)c1c(n2CCc2ccc(C)nc2)C[C@@H]2CC[C@H]1N2` (single isomer, unassigned) [Example 5], the figures for the Emax in series [1] and in series [4] were 123% and 209%, respectively. For the same compound, the “Aβ1-42-induced reduction of neurite outgrowth” value in series [1] (pretreatment about 5 hours, then about 5 μM Aβ1-42 with test compound for 3 days, FIG. 2) is listed as “significant attenuation; also recorded: neurite outgrowth levels similar to or enhanced relative to untreated control cells”. Besides, in series [4] (SK-N-SH cells), the EC50 came out at 13 µM. The “maintenance of mitochondrial function (JC-1 ratio) under cellular stress” value in series [4] (SK-N-SH cells, relative to 10 μM dimebolin (100% response), FIG. 3) is “maintained mitochondrial function in a dose dependent manner; also recorded: concentration-dependent enhancement of mitochondrial function maintenance”. The “latency to reenter the dark side (punishment side)” value in the series on mice was “significantly increased; also recorded: concentration-dependent improvement”.
For the compound `O=c1cccnn1-c1ccc(Cn2c3c(c4cc(F)ccc42)CN2CCC3CC2)cn1` [Example 248, 2-{5-[(9-fluoro-1,3,4,5-tetrahydro-6H-2,5-ethanoazepino[4,3-b]indol-6-yl)methyl]pyridin-2-yl}pyridazin-3(2H)-one], the Emax in series [1] was 109%; in series [4] it was 110%. In series [4] (SK-N-SH cells), the EC50 stood at 5.24 µM.
The like results for `c1ccc2c(c1)c1c(n2-c2ccc3ccncc3c2)C[C@H]2CC[C@@H]1N2` (single isomer, unassigned) [Example 279] were, in that order, 108%, 209% and 5.49 µM.
The like results for `O=c1cccnn1-c1ccc(-n2c3c(c4cc(F)ccc42)CN2CCC3CC2)nc1` [Example 262, 2-[6-(9-fluoro-1,3,4,5-tetrahydro-6H-2,5-ethanoazepino[4,3-b]indol-6-yl)pyridin-3-yl]pyridazin-3(2H)-one] were, in that order, 99%, 182% and 8.71 µM.
Take `Cc1ccc2c(c1)c1c(n2CCc2cccc(C(F)(F)F)c2)CC2CCC1N2C` (stereo not shown) [Example 50, 2,11-dimethyl-5-{2-[3-(trifluoromethyl)phenyl]ethyl}-5,6,7,8,9,10-hexahydro-7,10-epiminocyclohepta[b]indole]: the Emax is 101% in series [1] and 175% in series [4]. The EC50 in series [4] (SK-N-SH cells) is 6.45 µM.
Regarding `c1cnc2ccc(-n3c4c(c5ccccc53)[C@H]3CC[C@@H](C4)N3)cc2c1` (single isomer, unassigned) [Example 278], the Emax was determined as 96% in series [1] and 189% in series [4]. Also, in series [4] (SK-N-SH cells), the EC50 came out at 2.71 µM.
The matching figures for `Cc1ccc2cc(-n3c4c(c5cc(F)ccc53)CN3CCC4CC3)ccc2n1` [Example 229, 9-fluoro-6-(2-methylquinolin-6-yl)-3,4,5,6-tetrahydro-1H-2,5-ethanoazepino[4,3-b]indole]: 165%, 282% and 0.7 µM.
